From patent publication US20040053383A1, “Crystals of cytochrome P450 2C9, structures thereof and their use” (ASTEX TECHNOLOGY LTD., priority 2001, published 2004)

Experiments:
[1] = target: 2C9 (Homo sapiens, UniProt P11712); details: cited from earlier work; for Ki: read-out: 2C9 Published data, Ki, published
[2] = target: 2C9-FGloop K206E (Homo sapiens, UniProt P11712, C216Y/I215V/I222L/I223L/K206E/P221A/S220P); assay: biochemical
[3] = target: 2C9trunc (Homo sapiens, UniProt P11712); assay: Inhibition assay with substrates/inhibitors of 2C9
2C9trunc, sequence (P11712 30-490): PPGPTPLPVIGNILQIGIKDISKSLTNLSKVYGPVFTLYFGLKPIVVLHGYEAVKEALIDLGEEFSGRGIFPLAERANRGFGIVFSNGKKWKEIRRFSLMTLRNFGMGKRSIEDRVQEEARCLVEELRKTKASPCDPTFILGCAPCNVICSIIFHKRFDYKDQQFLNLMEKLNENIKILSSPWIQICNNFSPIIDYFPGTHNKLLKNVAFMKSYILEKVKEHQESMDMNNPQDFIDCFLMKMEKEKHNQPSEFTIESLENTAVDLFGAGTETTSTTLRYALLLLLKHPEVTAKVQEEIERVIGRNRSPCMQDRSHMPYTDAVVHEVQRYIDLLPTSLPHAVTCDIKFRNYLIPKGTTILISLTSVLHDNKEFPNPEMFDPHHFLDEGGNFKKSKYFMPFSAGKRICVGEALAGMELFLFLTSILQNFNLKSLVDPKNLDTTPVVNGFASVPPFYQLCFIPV

[4] = target: T1, 1155 (Homo sapiens, UniProt P11712, C216Y/I215V/I222L/I223L/K206E/P221A/S220P); assay: Inhibition assay with substrates/inhibitors of 2C19 and 2C9 (Table 17); format: biochemical; details: protein 1155, Table 17
T1 construct: is residue 30 (all numbering is in relation to the full length protein), and the last residue is residue 490; made in house; host or cells: E. coli XL1 Blue
T1 sequence (P11712 30-490 K206E/I215V/C216Y/S220P/P221A/I222L/I223L): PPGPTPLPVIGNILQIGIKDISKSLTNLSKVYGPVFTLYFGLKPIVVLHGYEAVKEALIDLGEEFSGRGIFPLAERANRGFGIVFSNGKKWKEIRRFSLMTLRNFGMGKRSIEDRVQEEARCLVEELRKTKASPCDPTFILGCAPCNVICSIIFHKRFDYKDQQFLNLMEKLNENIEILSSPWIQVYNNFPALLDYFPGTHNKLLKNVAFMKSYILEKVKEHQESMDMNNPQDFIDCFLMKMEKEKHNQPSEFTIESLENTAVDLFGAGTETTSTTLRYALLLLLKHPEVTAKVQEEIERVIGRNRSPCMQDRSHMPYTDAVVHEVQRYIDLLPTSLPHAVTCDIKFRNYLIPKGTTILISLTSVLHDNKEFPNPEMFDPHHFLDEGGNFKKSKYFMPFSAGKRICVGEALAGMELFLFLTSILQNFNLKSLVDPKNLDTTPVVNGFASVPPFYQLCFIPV

[5] = target: T2, 1600 (Homo sapiens, UniProt P11712, C216Y/E288V/F295L/I215V/I222L/I223L/I331V/I99H/K206E/L362I/N289I/P221A/S220P/S286N/V292A); assay: Inhibition assay on 2C9-2C19 chimera (Table 17); format: biochemical; details: chimera 1600, Table 17
T2 construct: is residue 30 (all numbering is in relation to the full length protein), and the last residue is residue 490; made in house; host or cells: E. coli XL1 Blue
T2 sequence (P11712 30-490 I99H/K206E/I215V/C216Y/S220P/P221A/I222L/I223L/S286N/E288V/N289I/V292A/F295L/I331V/L362I): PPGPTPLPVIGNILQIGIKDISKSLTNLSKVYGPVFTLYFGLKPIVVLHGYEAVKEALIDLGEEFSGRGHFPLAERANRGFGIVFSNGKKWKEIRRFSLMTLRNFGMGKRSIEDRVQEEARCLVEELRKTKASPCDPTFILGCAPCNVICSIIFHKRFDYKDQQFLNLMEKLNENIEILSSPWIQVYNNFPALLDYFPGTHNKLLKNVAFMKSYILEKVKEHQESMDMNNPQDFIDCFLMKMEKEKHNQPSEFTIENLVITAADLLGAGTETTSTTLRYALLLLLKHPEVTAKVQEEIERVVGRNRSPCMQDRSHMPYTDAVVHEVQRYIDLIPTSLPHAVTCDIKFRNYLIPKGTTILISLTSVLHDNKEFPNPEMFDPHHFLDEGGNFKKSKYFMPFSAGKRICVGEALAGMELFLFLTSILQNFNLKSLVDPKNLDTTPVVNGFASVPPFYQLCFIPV

[6] = target: T3, 1632 (Homo sapiens, UniProt P11712, C216Y/E288V/F295L/I215V/I222L/I223L/I99H/K206E/N289I/P221A/S220P/S286N/V292A); assay: Inhibition assay on 2C9-2C19 chimera (Table 17); format: biochemical; details: chimera 1632, Table 17
T3 construct: is residue 30 (all numbering is in relation to the full length protein), and the last residue is residue 490; made in house; host or cells: E. coli XL1 Blue
T3 sequence (P11712 30-490 I99H/K206E/I215V/C216Y/S220P/P221A/I222L/I223L/S286N/E288V/N289I/V292A/F295L): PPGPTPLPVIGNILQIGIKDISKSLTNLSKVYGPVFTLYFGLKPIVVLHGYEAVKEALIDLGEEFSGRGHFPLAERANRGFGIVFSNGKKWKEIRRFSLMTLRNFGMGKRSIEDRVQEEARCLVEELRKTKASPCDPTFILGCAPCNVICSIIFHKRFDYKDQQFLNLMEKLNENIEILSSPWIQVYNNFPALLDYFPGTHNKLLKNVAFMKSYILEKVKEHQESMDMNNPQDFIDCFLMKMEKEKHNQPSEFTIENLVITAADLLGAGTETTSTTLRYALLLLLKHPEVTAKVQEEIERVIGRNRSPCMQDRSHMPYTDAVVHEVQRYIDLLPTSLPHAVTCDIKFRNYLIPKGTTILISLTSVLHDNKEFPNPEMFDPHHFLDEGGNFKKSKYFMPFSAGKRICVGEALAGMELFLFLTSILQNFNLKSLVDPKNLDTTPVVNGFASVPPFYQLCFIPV

[7] = target: T4, 1661 (Homo sapiens, UniProt P11712, C216Y/I215V/I222L/I223L/I99H/K206E/N289I/P221A/S220P/S286N); assay: Inhibition assay on 2C9-2C19 chimera (Table 17); format: biochemical; details: chimera 1661, Table 17
T4 construct: is residue 30 (all numbering is in relation to the full length protein), and the last residue is residue 490; made in house; host or cells: E. coli XL1 Blue
T4 sequence (P11712 30-490 I99H/K206E/I215V/C216Y/S220P/P221A/I222L/I223L/S286N/N289I): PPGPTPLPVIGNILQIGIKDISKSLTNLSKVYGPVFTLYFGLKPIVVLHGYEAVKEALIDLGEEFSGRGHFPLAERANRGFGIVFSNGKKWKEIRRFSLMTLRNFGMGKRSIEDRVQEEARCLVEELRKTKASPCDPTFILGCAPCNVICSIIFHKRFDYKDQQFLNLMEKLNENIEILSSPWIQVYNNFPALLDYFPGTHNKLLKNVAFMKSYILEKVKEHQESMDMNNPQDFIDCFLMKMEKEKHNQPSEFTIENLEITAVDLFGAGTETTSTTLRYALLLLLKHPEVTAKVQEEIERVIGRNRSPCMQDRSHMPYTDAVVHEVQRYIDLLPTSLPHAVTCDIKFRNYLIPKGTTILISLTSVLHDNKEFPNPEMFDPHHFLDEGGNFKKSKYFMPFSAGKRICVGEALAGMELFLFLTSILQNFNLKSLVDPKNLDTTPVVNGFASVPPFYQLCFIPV

[8] = target: 2C19 (Homo sapiens, UniProt P33261); details: protein 2C19 (published), Table 17; cited from earlier work
2C19, sequence (P33261 whole entry): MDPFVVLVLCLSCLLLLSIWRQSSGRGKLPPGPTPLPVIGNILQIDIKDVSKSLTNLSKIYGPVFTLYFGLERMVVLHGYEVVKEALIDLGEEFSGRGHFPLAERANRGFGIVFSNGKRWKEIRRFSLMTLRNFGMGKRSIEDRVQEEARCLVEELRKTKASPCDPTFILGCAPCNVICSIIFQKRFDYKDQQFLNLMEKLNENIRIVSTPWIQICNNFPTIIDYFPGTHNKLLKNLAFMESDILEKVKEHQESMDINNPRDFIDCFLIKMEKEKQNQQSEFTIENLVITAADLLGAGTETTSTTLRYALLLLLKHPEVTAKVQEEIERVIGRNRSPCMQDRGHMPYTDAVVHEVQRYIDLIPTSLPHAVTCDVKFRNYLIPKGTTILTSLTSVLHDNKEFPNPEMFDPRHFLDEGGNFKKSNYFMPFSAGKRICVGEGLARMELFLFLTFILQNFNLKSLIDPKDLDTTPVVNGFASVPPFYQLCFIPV

2C9, sequence (P11712 whole entry): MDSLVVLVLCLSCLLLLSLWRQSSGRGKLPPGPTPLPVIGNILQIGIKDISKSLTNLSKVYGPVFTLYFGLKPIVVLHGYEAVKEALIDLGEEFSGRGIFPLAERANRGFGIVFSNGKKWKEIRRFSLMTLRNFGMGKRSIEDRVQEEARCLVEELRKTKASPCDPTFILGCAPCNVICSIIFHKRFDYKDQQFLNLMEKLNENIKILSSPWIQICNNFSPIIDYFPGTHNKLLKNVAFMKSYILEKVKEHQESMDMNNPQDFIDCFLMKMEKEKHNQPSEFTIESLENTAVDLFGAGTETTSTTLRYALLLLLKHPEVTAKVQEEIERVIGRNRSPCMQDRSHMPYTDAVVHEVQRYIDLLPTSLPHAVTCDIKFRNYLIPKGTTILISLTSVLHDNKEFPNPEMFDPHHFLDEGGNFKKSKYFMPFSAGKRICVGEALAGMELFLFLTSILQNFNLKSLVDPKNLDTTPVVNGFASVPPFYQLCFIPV
2C9-FGloop K206E, sequence (P11712 30-490 K206E/I215V/C216Y/S220P/P221A/I222L/I223L): as the sequence (P11712 30-490 K206E/I215V/C216Y/S220P/P221A/I222L/I223L) above

Compound | Km [1] | IC50 [2] | Ki [2] | IC50 [3] | Ki [3] | Ki [1] | Ki [4] | Ki [5] | Ki [6] | Ki [7] | Ki [8]
CC(C)(c1ccc(O)cc1)c1ccc(O)cc1 [Bisphenol A] | 4 µM | 7800 nM | 3300 nM | 4800 nM | 2900 nM |  |  |  |  |  | 
CNCCC(Oc1ccc(C(F)(F)F)cc1)c1ccccc1 (stereo not shown) [Fluoxetine] |  | 2100 nM | 4100 nM | 1500 nM | 1500 nM | 13000 nM |  |  |  |  | 
CN1C(C(=O)Nc2ccccn2)=C(O)c2ccccc2S1(=O)=O [Piroxicam] |  |  |  |  |  |  | 30000 nM | > 100000 nM | > 100000 nM | > 100000 nM | 133000 nM
COCCCC/C(=N\OCCN)c1ccc(C(F)(F)F)cc1 [Fluvoxamine] |  | 400 nM | 850 nM | 600 nM | 700 nM | 2000 to 5000 nM | 400 nM | < 1000 nM | 1600 nM | 500 nM | 
O=C(O)Cc1ccccc1Nc1c(Cl)cccc1Cl [Diclofenac] |  |  |  |  |  |  |  |  |  |  | 231000 nM
